From publication PMC10111164, “Artemis inhibition as a therapeutic strategy for acute lymphoblastic leukemia” (Frontiers in Cell and Developmental Biology, 2023)

Experiments:
[1] = tested on: Mature B cell lines (3301015 and 5680001); assay: Proliferation of GFP-labeled mature B cell lines on OP9 cells (Incucyte green fluorescence); assay type: cell-based, human
Experimental: (§1) Lentivirally green fluorescence protein (GFP) labeled patient-derived B-ALL cells (LAX56, BLQ5, LAX7R) or mature B cell lines 3301015 and 5680001 were plated on irradiated murine stromal OP9 cells and treated with four compounds optimized for Artemis inhibition (827171, 827032, 826941, 825226) (provided by Curia Global Inc., as part of the NCI NExT Program). These compounds ranged in KD binding affinity to Artemis from 20 to 150 nM. […] Proliferation was determined by measuring the green fluorescence intensity per image (9 images were captured per well) by Incucyte every 8 h for 3 days. Raw values were normalized to the zero-time DMSO control. On day 3, viability of the treated cells was determined by annexin V/DAPI staining via flow cytometry.
Based on these viability studies, we next tested the compounds for their effect on proliferation. […] Ideally, normal B-cell lines would continue to proliferate upon Artemis inhibition and only B-ALL cell lines would be inhibited due to chromosome breaks. Primary patient-derived B-ALL cells (BLQ5, LAX56, and LAX7R) were transduced with GFP and 100,000 cells were plated in 24-well plates seeded with irradiated OP9 cells. Increasing green fluorescence intensity is indicative of proliferation as measured by Incucyte every 8 h. […] The mature B cell line proliferation is slow enough that it appears relatively flat in the proliferation assays, but the cells do increase in number (Supplementary Figure S2). Compared to B-ALL cells which grow as single cells (Supplementary Figure S3A–F), the mature B-cell lines grow in clusters and the measurement of total intensity per image is a potential caveat and may not capture this growth (Supplementary Figure S3G–J).
Mature B cell lines (3301015 and 5680001) were transduced with GFP, and 100,000 cells were plated in 24-well plates seeded with irradiated OP9 cells. […] Green fluorescence intensity was measured by Incucyte every 8 h. Raw values were normalized to the 0 h DMSO control. The dashed lines indicate the mean of the final time point measurements of the DMSO control for each mature B cell line.

[2] = tested on: Normal mature B cell lines 3301015 and 5680001; assay: Viability of normal mature B cell lines by annexin V/DAPI flow cytometry, day 3; assay type: cell-based, human; details: one or both B-cell lines, 1–20 μM, 3 days
Experimental: Normal mature human B cell lines, immortalized lymphoblastoid cell lines 3301015 and 5680001, were generated using EBV-transformation of peripheral blood from patients with no hematopoietic abnormalities.
as §1
FIGURE 4 Artemis inhibitors and DNA-PK inhibitors effect on viability of normal mature B cell lines. […] On day three, mature B cells were collected and used for flow cytometry analysis with PE Annexin V and DAPI to measure % viability (PE Annexin V-/DAPI-). The % viability (Ann V-/DAPI-) is depicted. […]

[3] = tested on: Primary patient-derived B-ALL cells (BLQ5, LAX56, and LAX7R); assay: Proliferation of GFP-labeled B-ALL cells on OP9 cells (Incucyte green fluorescence); assay type: cell-based, human
Experimental: as §1
Based on these viability studies, we next tested the compounds for their effect on proliferation. […] Ideally, normal B-cell lines would continue to proliferate upon Artemis inhibition and only B-ALL cell lines would be inhibited due to chromosome breaks. […] Increasing green fluorescence intensity is indicative of proliferation as measured by Incucyte every 8 h. […]
Primary B-ALL cells (BLQ5, LAX56, and LAX7R) were transduced with GFP, and 100,000 cells were plated in 24-well plates seeded with irradiated OP9 cells. […] Green fluorescence intensity was measured by Incucyte every 8 h. […]

[4] = tested on: patient-derived B-ALL cells (BLQ5, LAX56 and LAX7R); assay: Viability of B-ALL cells by annexin V/DAPI flow cytometry, day 3; assay type: cell-based, human; details: all three B-ALL cells (BLQ5, LAX56, LAX7R), 3 days
Experimental: as §1
On day three, primary B-ALL cells were collected and used for flow cytometry analysis with PE Annexin V and DAPI to measure % viability (PE Annexin V-/DAPI-). The statistical analysis of viability differences is compared to DMSO control: ns: non-significant; *p < 0.05; **p < 0.001; ***p < 0.0001, one-way ANOVA.

[5] = target: T1, purified full-length human Artemis with DNA-PKcs (Homo sapiens, UniProt Q96SD1); assay: Biochemical Artemis catalytic activity assay (FAM hairpin DNA cleavage, fluorescence)
T1 construct: Artemis activity assay was developed using full length Artemis with DNA-PKcs; made in house
T1 sequence (Q96SD1 whole entry): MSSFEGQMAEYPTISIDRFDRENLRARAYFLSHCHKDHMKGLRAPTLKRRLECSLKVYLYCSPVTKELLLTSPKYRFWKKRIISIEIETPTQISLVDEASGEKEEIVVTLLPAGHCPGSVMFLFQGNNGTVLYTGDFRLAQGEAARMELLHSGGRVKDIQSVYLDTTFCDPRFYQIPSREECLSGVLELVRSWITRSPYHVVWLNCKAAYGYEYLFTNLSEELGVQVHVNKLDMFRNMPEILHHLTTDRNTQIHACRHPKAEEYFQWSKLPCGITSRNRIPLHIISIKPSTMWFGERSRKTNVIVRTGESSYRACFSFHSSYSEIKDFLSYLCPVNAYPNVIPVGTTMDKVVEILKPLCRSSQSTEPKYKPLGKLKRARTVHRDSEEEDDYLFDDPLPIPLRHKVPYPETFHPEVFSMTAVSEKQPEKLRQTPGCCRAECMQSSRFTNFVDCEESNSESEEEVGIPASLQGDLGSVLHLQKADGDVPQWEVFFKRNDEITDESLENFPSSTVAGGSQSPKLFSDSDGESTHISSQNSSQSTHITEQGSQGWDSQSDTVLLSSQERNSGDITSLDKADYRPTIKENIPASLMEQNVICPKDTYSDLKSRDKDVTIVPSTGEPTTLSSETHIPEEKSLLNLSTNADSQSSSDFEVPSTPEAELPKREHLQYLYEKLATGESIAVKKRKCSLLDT
T1 sequence (P78527 whole entry partner): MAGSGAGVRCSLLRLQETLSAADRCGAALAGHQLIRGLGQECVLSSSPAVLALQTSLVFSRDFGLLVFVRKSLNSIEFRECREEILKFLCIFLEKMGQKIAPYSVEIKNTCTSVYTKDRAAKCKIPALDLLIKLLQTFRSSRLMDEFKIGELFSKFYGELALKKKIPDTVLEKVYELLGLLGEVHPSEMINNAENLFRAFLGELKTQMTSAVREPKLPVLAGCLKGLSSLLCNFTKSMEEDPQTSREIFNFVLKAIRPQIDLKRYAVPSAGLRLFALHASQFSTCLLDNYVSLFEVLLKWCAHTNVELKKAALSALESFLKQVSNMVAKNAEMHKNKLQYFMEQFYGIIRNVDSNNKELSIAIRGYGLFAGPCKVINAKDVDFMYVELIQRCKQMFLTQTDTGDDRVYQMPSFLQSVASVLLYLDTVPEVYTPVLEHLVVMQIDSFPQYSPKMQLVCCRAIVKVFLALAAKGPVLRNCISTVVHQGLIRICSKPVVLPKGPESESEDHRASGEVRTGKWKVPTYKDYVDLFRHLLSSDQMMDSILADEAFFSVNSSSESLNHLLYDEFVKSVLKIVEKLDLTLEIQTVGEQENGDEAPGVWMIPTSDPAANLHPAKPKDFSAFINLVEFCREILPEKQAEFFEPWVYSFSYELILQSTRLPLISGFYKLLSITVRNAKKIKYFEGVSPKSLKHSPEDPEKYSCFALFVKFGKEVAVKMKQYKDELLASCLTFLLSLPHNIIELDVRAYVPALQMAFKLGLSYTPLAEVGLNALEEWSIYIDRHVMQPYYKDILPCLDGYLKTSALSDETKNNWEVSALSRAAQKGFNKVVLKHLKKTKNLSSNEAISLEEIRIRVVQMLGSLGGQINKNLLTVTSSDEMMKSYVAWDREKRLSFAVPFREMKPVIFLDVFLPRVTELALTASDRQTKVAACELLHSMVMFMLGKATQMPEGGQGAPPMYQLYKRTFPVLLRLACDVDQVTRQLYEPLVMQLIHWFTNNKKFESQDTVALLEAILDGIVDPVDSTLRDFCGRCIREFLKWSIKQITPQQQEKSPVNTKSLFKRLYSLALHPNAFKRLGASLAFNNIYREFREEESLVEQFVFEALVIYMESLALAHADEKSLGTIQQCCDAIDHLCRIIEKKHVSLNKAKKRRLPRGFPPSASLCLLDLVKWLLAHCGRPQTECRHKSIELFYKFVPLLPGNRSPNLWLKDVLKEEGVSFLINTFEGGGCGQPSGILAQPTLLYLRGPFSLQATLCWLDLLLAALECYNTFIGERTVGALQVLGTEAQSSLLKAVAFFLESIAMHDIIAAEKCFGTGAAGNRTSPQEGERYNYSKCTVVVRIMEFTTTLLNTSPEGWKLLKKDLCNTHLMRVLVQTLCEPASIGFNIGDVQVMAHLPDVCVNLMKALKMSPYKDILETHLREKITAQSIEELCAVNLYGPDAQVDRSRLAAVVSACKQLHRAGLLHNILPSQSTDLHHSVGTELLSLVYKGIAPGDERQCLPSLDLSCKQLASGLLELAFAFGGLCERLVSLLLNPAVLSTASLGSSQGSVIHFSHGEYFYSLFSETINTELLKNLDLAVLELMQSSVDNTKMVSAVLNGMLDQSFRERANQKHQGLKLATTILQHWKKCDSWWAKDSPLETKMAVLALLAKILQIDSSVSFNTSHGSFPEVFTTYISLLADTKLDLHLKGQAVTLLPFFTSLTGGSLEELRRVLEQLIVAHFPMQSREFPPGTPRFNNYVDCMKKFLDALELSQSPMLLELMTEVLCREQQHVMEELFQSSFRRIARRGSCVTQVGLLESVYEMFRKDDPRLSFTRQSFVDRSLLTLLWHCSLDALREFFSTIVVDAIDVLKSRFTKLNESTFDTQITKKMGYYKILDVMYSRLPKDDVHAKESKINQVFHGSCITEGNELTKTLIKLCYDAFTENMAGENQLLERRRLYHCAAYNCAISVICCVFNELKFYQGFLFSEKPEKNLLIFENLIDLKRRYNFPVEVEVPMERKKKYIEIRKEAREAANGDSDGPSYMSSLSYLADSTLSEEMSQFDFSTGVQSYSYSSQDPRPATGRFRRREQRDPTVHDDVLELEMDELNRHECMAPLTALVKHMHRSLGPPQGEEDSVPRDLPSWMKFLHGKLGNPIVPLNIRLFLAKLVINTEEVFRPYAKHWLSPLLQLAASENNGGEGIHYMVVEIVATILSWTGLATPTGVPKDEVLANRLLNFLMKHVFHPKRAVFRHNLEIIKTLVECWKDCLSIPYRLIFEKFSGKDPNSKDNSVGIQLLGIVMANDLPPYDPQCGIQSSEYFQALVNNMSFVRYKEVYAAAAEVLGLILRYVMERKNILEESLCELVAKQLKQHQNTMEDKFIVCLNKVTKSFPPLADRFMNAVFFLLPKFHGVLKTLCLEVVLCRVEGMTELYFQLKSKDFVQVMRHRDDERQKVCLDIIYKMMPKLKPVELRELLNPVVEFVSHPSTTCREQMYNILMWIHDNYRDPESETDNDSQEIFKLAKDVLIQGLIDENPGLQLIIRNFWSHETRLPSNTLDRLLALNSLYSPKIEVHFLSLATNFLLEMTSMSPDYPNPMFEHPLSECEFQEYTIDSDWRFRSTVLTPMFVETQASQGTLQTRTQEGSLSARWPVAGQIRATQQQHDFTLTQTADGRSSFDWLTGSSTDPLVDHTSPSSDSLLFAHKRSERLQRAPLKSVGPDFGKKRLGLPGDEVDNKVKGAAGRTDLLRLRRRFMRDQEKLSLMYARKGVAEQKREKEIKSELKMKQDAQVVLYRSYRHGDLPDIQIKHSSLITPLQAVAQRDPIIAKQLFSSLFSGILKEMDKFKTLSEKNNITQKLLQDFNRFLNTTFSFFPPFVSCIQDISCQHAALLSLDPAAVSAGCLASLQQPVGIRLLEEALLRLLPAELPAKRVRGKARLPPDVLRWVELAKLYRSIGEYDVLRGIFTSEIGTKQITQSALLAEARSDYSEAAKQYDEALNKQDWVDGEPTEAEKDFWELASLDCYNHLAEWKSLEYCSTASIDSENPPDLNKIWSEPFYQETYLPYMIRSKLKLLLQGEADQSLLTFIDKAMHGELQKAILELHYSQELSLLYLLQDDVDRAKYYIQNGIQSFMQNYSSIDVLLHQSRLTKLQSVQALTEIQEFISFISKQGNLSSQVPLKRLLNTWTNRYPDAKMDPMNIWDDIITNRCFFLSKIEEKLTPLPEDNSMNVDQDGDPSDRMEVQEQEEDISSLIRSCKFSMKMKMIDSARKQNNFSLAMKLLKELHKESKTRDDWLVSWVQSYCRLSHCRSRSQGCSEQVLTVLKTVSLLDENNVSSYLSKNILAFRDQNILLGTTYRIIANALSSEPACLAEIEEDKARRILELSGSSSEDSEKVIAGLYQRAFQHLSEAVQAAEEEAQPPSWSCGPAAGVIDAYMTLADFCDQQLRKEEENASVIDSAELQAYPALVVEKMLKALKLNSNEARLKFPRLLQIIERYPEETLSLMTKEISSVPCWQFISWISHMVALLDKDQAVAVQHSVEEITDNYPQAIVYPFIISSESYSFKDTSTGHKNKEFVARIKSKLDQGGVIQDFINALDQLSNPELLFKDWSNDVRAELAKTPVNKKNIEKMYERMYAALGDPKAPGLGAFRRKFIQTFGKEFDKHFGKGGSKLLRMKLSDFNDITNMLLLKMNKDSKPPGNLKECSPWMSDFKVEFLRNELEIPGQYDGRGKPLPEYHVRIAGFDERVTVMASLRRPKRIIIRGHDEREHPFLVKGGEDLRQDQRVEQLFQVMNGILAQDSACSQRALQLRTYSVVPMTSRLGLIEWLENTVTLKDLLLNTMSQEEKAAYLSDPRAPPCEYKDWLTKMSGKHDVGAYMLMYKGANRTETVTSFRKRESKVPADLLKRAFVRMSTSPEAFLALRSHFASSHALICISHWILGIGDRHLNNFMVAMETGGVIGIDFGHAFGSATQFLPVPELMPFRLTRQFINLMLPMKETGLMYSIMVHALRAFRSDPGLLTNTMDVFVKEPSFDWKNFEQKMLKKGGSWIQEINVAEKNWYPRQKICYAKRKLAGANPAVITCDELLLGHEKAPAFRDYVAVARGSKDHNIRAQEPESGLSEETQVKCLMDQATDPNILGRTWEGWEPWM
Experimental: Artemis activity assay was developed using full length Artemis with DNA-PKcs to generate a fluorescent signal from the cleavage of the 5′ 6-FAM modified end of hairpin DNA with a black-hole quencher (3-BHQ) on the 3’ end. The assay buffer used was 25 mM MOPS, pH 7.5, 10 mM MgCl2, 10 mM KCl, 10 μM ATP, 1 mM DTT, 0.05% (w/v) CHAPS with 5 nM FL-Artemis, 5 nM DNA-PKcs, and 200 nM DNA FAM hairpin substrate. The fluorescence signal was monitored kinetically on a Perkin Elmer Envision microplate reader with FITC filters (λ ex = 485 nm, λ em = 520 nm) with 1-min reads for 40 min.
We determined the specificity of the four Artemis inhibiting compounds using a biochemical Artemis activity assay which generates a fluorescent signal from the cleavage of the 5′ 6-FAM modified end of hairpin DNA with a black-hole quencher (3-BHQ) on the 3’ end.
Steps 1, 2, and 3 show the fluorescence assay for cutting of the DNA hairpin substrate by Artems:DNA-Kcs. Artemis activity assay was optimized for development of a fluorescent signal from the cleavage of the 6-FAM modified end of hairpin DNA (to release it from proximity to the BHQ quenching) and monitored kinetically on a Perkin Elmer Envision microplate reader with FITC filters (excitation wavelength = 485 nm, emission wavelength = 520 nm). […]

Compound	proliferation (normalized green fluorescence intensity) vs DMSO ([1]; 3301015, 5 μM and 10 µM)	proliferation (normalized green fluorescence intensity) vs DMSO [1]; 5680001	proliferation (normalized green fluorescence intensity) vs DMSO ([1]; 5680001, 1 or 5 μM)	viability (PE Annexin V-/DAPI-) [2]	proliferation (normalized green fluorescence intensity) vs DMSO ([3]; B-ALL cell lines, 5 μM and 10 μM)	proliferation of the three B-ALL lines (Discussion summary) ([3]; three B-ALL lines, 827171 at 1, 5, and 10 µM)	viability (PE Annexin V-/DAPI-) compared to DMSO controls [4]	IC50 ([5]; 5 nM FL-Artemis, 5 nM DNA-PKcs, 200 nM DNA FAM hairpin substrate, 10 μM ATP, 10-point concentration response) [nM]	%Inh at Max ([5]; percent inhibition at maximal tested concentration) [%]
Cc1cc2ncnn2cc1Nc1ncc2c(n1)n(C1CCOCC1)c(=O)n2C [AZD7648]	suppressed proliferation	no significant decreases in proliferation	minor increase in proliferation	decrease viability of one or both B-cell lines	inhibited the proliferation	little inhibition	decrease in viability		
COc1ccc([C@@H](O)c2cc(-c3ncnc4cc(N5CCOCC5)ccc34)c(F)cc2Cl)nn1 [M3814]								3	90.2
